From the supplement of paper PMC11414989 come the findings set out here.

The structures appear in SMILES notation.

Common to all, as to conditions: exposure window: 6 hpf to 120 hpf, static, assay age: 120 hpf (5 dpf)
The subject of assay [1] is Danio rerio larvae (Tropical 5D). Nature of the assay: mean angular velocity of exposed larvae, dark phase (angular velocity (unit not stated)); higher = more movement. As for the experimental part: (§1)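 Larval photomotor response in Tropical 5D wild-type zebrafish. Larvae were statically exposed to each chemical from 6 hpf to 5 dpf in 96-well plates; morphologically abnormal larvae were excluded. At 120 hpf, larvae were tracked with Ethovision XT (25 frames/s) over the 2nd cycle of 3 min light and 3 min dark. Values are the mean movement metric of exposed larvae per phase; same-plate control means (plate-dependent baseline) are given as conditions.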

For assay [2] the test system is unchanged. In words: mean angular velocity of exposed larvae, light phase (angular velocity (unit not stated)); higher = more movement. How it is done:
as §1

Assay [3] shares this test system. Nature of the assay: mean distance moved of exposed larvae, light phase (µm per frame (1/25 s)); higher = more movement. As for the experimental part:
as §1

Assay [4] has the same test system. Nature of the assay: mean distance moved of exposed larvae, dark phase (µm per frame (1/25 s)); higher = more movement. As for the experimental part: as §1

In the case of `Cc1cccc2c1ccc1ccccc12` [1-Methylphenanthrene], the “mean angular velocity of exposed larvae” value in assay [1] (1 µM) came to 0.432; in assay [1] (2.54 µM), 0.487; in assay [1] (6.45 µM), 0.604; in assay [1] (16.4 µM) it was 0.563; in assay [1] (35 µM), 0.642; in assay [1] (74.8 µM), 0.39. For the same compound, the “mean angular velocity of exposed larvae” value in assay [1] (100 µM) worked out at 0.294; in assay [2] (1 µM), 0.118; in assay [2] (2.54 µM) it was 0.119; in assay [2] (6.45 µM) it was 0.139; in assay [2] (16.4 µM) it was 0.133; in assay [2] (35 µM) it was 0.126. The “mean angular velocity of exposed larvae” value in assay [2] (74.8 µM) came out at 0.12; in assay [2] (100 µM) it was 0.143. The “mean distance moved of exposed larvae” value in assay [3] (1 µM) came to 5.24; in assay [3] (2.54 µM), 4.47; in assay [3] (6.45 µM) it was 4.85; in assay [3] (16.4 µM) it was 5.17; in assay [3] (35 µM) it was 4.57; in assay [3] (74.8 µM), 4.58. Besides, the “mean distance moved of exposed larvae” value is 5.53 in assay [3] (100 µM); 14.6 in assay [4] (1 µM); 16.3 in assay [4] (2.54 µM); 19.4 in assay [4] (6.45 µM); 17.5 in assay [4] (16.4 µM); 21.2 in assay [4] (35 µM). Besides, the “mean distance moved of exposed larvae” value turned out to be 12.8 in assay [4] (74.8 µM) and 10.4 in assay [4] (100 µM).

For the compound `O=P(O)(O)C(F)(F)C(F)(F)C(F)(F)C(F)(F)C(F)(F)C(F)(F)F` [Perfluorohexylphosphonic acid], the “mean angular velocity of exposed larvae” value in assay [1] (0.25 µM) was determined as 0.788; in assay [2] (0.25 µM), 0.148. The “mean distance moved of exposed larvae” value in assay [3] (0.25 µM) was 5.18; in assay [4] (0.25 µM), 24.1.

Consider `Cc1ccc2c(ccc3ccccc32)c1` [2-Methylphenanthrene], for which the “mean angular velocity of exposed larvae” value is 0.536 in assay [1] (1 µM); 0.424 in assay [1] (2.54 µM); 0.539 in assay [1] (6.45 µM); 0.592 in assay [1] (16.4 µM); 0.507 in assay [1] (35 µM); 0.473 in assay [1] (74.8 µM). Also, the “mean angular velocity of exposed larvae” value in assay [1] (100 µM) was 0.439; in assay [2] (1 µM), 0.0841; in assay [2] (2.54 µM), 0.0709; in assay [2] (6.45 µM), 0.0511; in assay [2] (16.4 µM) it was 0.126; in assay [2] (35 µM), 0.0754. Besides, the “mean angular velocity of exposed larvae” value in assay [2] (74.8 µM) worked out at 0.0848; in assay [2] (100 µM), 0.0583. The “mean distance moved of exposed larvae” value in assay [3] (1 µM) was found to be 2.38; in assay [3] (2.54 µM), 1.4; in assay [3] (6.45 µM), 1.73; in assay [3] (16.4 µM), 2.82; in assay [3] (35 µM), 1.74; in assay [3] (74.8 µM), 2.4. Also, the “mean distance moved of exposed larvae” value amounted to 1.83 in assay [3] (100 µM); 16.4 in assay [4] (1 µM); 12.1 in assay [4] (2.54 µM); 15 in assay [4] (6.45 µM); 15.5 in assay [4] (16.4 µM); 16.9 in assay [4] (35 µM). For the same compound, the “mean distance moved of exposed larvae” value in assay [4] (74.8 µM) is 13.3; in assay [4] (100 µM) it was 13.2.

For `O=P(O)(O)C(F)(F)C(F)(F)C(F)(F)C(F)(F)C(F)(F)C(F)(F)Cl` [6-Chloroperfluorohexylphosphonic acid], the “mean angular velocity of exposed larvae” value came out at 0.789 in assay [1] (0.167 µM) and 0.212 in assay [2] (0.167 µM). Further, the “mean distance moved of exposed larvae” value in assay [3] (0.167 µM) came out at 6.62; in assay [4] (0.167 µM) it was 20.6.

Take `O=C(O)CCC(F)(F)C(F)(F)C(F)(F)C(F)(F)C(F)(F)C(F)(F)C(F)(F)F` [3-Perfluoroheptyl propanoic acid]: the “mean angular velocity of exposed larvae” value in assay [1] (0.25 µM) is 0.534; in assay [2] (0.25 µM) it was 0.0662. Moreover, the figures for the “mean distance moved of exposed larvae” value in assay [3] (0.25 µM) and in assay [4] (0.25 µM) were 1.75 and 12.1, respectively.

`O=S(=O)(O)C(F)(F)C(F)(F)C(F)(F)C(F)(F)C(F)(F)C(F)(F)C(F)(F)C(F)(F)C(F)(F)C(F)(F)F` [Sodium perfluoro-1-decanesulfonate]: the “mean angular velocity of exposed larvae” value in assay [1] (0.25 µM) worked out at 0.897; in assay [2] (0.25 µM), 0.372. The “mean distance moved of exposed larvae” value in assay [3] (0.25 µM) turned out to be 6.8; in assay [4] (0.25 µM), 24.8.

Regarding `CN1C(=O)CN=C(c2ccccc2)c2cc(Cl)ccc21` [Diazepam], the “mean angular velocity of exposed larvae” value in assay [1] (1 µM) was found to be 1.05; in assay [1] (3 µM), 1.06; in assay [1] (5 µM), 1.17; in assay [1] (8 µM) it was 0.786; in assay [1] (12 µM), 0.733; in assay [2] (1 µM) it was 0.379. Besides, the “mean angular velocity of exposed larvae” value was 0.422 in assay [2] (3 µM), 0.41 in assay [2] (5 µM), 0.389 in assay [2] (8 µM) and 0.456 in assay [2] (12 µM). Besides, the “mean distance moved of exposed larvae” value in assay [3] (1 µM) is 10.9; in assay [3] (3 µM), 7.88; in assay [3] (5 µM), 7.53; in assay [3] (8 µM), 10; in assay [3] (12 µM), 11; in assay [4] (1 µM), 22.5. Moreover, the “mean distance moved of exposed larvae” value is 22.7 in assay [4] (3 µM), 21.5 in assay [4] (5 µM), 17.3 in assay [4] (8 µM) and 17 in assay [4] (12 µM).

Regarding `O=C(O)CCC(F)(F)C(F)(F)C(F)(F)C(F)(F)C(F)(F)F` [3-Perfluoropentyl propanoic acid], the “mean angular velocity of exposed larvae” value in assay [1] (0.25 µM) is 0.61; in assay [2] (0.25 µM), 0.0445. Further, the “mean distance moved of exposed larvae” value in assay [3] (0.25 µM) is 1.49; in assay [4] (0.25 µM), 14.9.

As for `O=S(=O)(O)C(F)(F)C(F)(F)C(F)(F)C(F)(F)F` [Potassium perfluoro-1-butanesulfonate], the “mean angular velocity of exposed larvae” value was found to be 1.11 in assay [1] (0.25 µM) and 0.0624 in assay [2] (0.25 µM). For the same compound, the results for the “mean distance moved of exposed larvae” value in assay [3] (0.25 µM) and in assay [4] (0.25 µM) were 1.73 and 30.9, respectively.

As for `O=S(=O)(O)C(F)(F)C(F)(F)C(F)(F)C(F)(F)C(F)(F)C(F)(F)C(F)(F)C(F)(F)Cl` [Sodium 8-chloroperfluoro-1-octanesulfonate], the figures for the “mean angular velocity of exposed larvae” value in assay [1] (0.25 µM) and in assay [2] (0.25 µM) were 0.945 and 0.0987, respectively. The “mean distance moved of exposed larvae” value is 2.63 in assay [3] (0.25 µM) and 28.8 in assay [4] (0.25 µM).

For `CCN(CCOP(=O)(O)O)S(=O)(=O)C(F)(F)C(F)(F)C(F)(F)C(F)(F)C(F)(F)C(F)(F)C(F)(F)C(F)(F)F`, the results for the “mean angular velocity of exposed larvae” value in assay [1] (0.25 µM) and in assay [2] (0.25 µM) were 0.809 and 0.169, respectively. The entries for the “mean distance moved of exposed larvae” value in assay [3] (0.25 µM) and in assay [4] (0.25 µM) were 3.01 and 23.4, respectively.

For the compound `O=C(O)C(F)(F)C(F)(F)C(F)(F)C(F)(F)C(F)(F)C(F)(F)C(F)(F)C(F)(F)C(F)(F)C(F)(F)C(F)(F)C(F)(F)C(F)(F)C(F)(F)C(F)(F)F` [Perfluoro-n-hexadecanoic acid], the “mean angular velocity of exposed larvae” value was 0.833 in assay [1] (0.25 µM) and 0.178 in assay [2] (0.25 µM). Moreover, the “mean distance moved of exposed larvae” value in assay [3] (0.25 µM) was 6.65; in assay [4] (0.25 µM), 27.2.
